Source: paper PMC7615343, “Fluorination Influences the Bioisostery of Myo-Inositol Pyrophosphate Analogs” (Chemistry (Weinheim an der Bergstrasse, Germany), 2023)

Target: T1, PPIP5K2^1-366 (human PPIP5K2 kinase domain) (Homo sapiens, UniProt O43314)
T1 construct: one comprised residues 1–366; made in house
T1 sequence (O43314 1-366): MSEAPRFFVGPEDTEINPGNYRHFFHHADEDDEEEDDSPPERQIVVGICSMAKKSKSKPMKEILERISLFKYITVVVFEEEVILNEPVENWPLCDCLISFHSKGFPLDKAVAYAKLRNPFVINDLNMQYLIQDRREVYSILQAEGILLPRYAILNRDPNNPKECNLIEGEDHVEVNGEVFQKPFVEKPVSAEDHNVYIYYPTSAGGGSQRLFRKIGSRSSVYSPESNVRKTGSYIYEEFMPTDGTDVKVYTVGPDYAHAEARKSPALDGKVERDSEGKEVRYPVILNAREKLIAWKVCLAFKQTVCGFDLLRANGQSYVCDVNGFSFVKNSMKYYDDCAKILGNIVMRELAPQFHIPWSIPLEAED
Test: Isothermal titration calorimetry of ligand binding to PPIP5K2KD
Details: ITC, 25°C; for ΔH / ΔS: 7.5 μM PPIP5K2^1-366, 75 μM ligand, pH 7.2; for Kd: 7.5 μM PPIP5K2^1-366 in cell, 75 μM ligand in syringe, pH 7.2, 1mM AMP-PNP, 1mM MgCl2, read-out: Kd (apparent)
Text: We next used isothermal titration calorimetry (ITC) to analyze the interactions of PPIP5K2^KD with 5PP-IP5 and each of the four analogs studied herein (Figure 5A-E). […] At the same time, the enthalpic gain for binding was largest for 5PCF2Am-IP5 and 5PA-IP5. A possible explanation may be that these two ligands are less strongly hydrated, due to their lower overall charge. The enthalpic cost for dehydration of 5PCF2Am-IP5 and 5PA-IP5 is therefore lower, compared to the other molecules, resulting in a higher enthalpic gain overall. A less strongly hydrated ligand will also release fewer water molecules upon binding, consistent with the lower entropic gains.
Figure 5 Analysis of ligand binding to the PPIP5K2^KD by ITC. Test solutions contained 7.5 μM of PPIP5K2^1-366 in the sample cell and 75 μM ligand in the syringe. Other details are provided in the Methods Section. Representative thermograms (1 of 3 replicates) are shown for titration of either (A) 5PP-IP5; (B) 5PCPF2P-IP5; (C) 5PCP-IP5; (D) 5PCF2Am-IP5; (E) 5PA-IP5. (F) Corresponding thermodynamic data. TEXT PRINTED IN THE PICTURE: (F) 5PP-: Kd (nM): 123 ± 13; ΔH (kJ/mol): -26 ± 2; ΔS (kJ/mol/deg): 0.046 ± 0.008 | (F) 5PCF2-: Kd (nM): 246 ± 10; ΔH (kJ/mol): -16 ± 1; ΔS (kJ/mol/deg): 0.072 ± 0.005 | (F) 5PCP-: Kd (nM): 100 ± 10; ΔH (kJ/mol): -20 ± 2; ΔS (kJ/mol/deg): 0.067 ± 0.016 | (F) 5PCF2-Am-: Kd (nM): 90 ± 13; ΔH (kJ/mol): -38 ± 2; ΔS (kJ/mol/deg): 0.007 ± 0.004 | (F) 5PA-: Kd (nM): 90 ± 7; ΔH (kJ/mol): -36 ± 3; ΔS (kJ/mol/deg): 0.013 ± 0.008 […]
(§1) Calorimetry experiments were performed using a MicroCal PEAQ-ITC (Malvern Panalytical) with 7.5 μM recombinant PPIP5K21-366 in the sample cell and 75 μM of ligand in the syringe, each of which was maintained at 25°C in buffer containing 20 mM HEPES, pH 7.2, 150 mM KCl, 0.05 mM EDTA, 1mM AMP-PNP, 1mM MgCl2 as indicated. The sample cell (volume = 204 μL) and the syringe were cleaned before each run. Thermograms were constructed from 13 injections, each of which involved 3 μL of ligand delivered for 6 s, with an equilibration time of 150-300 s between each injection. The stirring speed was set to 750 rpm. Data were fitted to a single binding site model using the analysis software provided by the manufacturer. At least three runs were performed for each condition.
Protein expression and purification.
Throughout the main text, PPIP5K2KD is deployed as an abbreviation for the human PPIP5K2 kinase domain. However, two different constructs were utilized, as described in the figure legends and within the Methods section below: one comprised residues 1–366 (PPIP5K21-366) and the other comprised residues 41–366 (PPIP5K241-366). Both constructs were expressed and purified as described previously.[6] The human DIPP1 construct (residues 1-148) was expressed and purified as described in [7]. […]
The molecular graphics representations wer e prepared with the program PyMol (Schrödinger, LLC). Atomic coordinates an d structure factors have been deposited with the Protein Data Bank with accession codes 8G9C, 8G9D, 8G9E.
PPIP5K2KD reverse kinase assay […]
Isothermal titration calorimetry
as §1, with “PPIP5K21–366” for “PPIP5K21-366”, “2 04 µL)” for “204 μL)”, “µL” for “μL”, “150 -300” for “150-300”, “cond ition. […]” for “condition.”

Compound | ΔH | ΔS | Kd
O=P(O)(O)O[C@H]1[C@@H](OP(=O)(O)O)[C@H](OP(=O)(O)O)[C@@H](OP(=O)(O)C(F)(F)P(=O)(O)O)[C@H](OP(=O)(O)O)[C@H]1OP(=O)(O)O [5PCF2P-IP5] | -16 ± 1 kJ/mol | 0.072 ± 0.005 kJ/mol/deg | 246 nM
O=P(O)(O)CP(=O)(O)O[C@H]1[C@H](OP(=O)(O)O)[C@@H](OP(=O)(O)O)[C@@H](OP(=O)(O)O)[C@@H](OP(=O)(O)O)[C@@H]1OP(=O)(O)O [5PCP-IP5] | -20 ± 2 kJ/mol | 0.067 ± 0.016 kJ/mol/deg | 100 ± 10 nM
